Source: patent publication US7638678B2, “Animal model for perimenopause and menopause and methods of inducing ovarian failure” (The Arizona Board of Regents, priority 2002, dated 2009)
“Also recorded” adds a separate entry of the source.

Columns and labels:
[1] = tested on: ovarian follicles (primordial, primary, secondary, antral); experiment: Histology and follicle counting after VCD dosing; type: in vivo, B6C3F1 mice
Method: (§1) Treatment: Immature mice (d28) were weighed and injected i.p. with either 80 mg/kg (1, 2, or 3 times daily), 160 mg/kg (1 or 2 times daily), or 240 mg/kg (once daily) with VCD or sesame oil (vehicle control, i.p.) for 15 d resulting in a total daily exposure of 80, 160, 240, or 320 mg/kg (n=6/group). All reagents were obtained from Sigma-Aldrich (St. Louis, Mo.). Estrous cycles of each animal were monitored daily by vaginal cytology from date of vaginal opening to persistent diestrus in VCD-treated mice, and from date of vaginal opening to d120 in controls. On d8, d10, d12, d14, d15, d30, d37, d46, d57 and d120, animals were weighed, euthanized by CO2 inhalation, and the ovaries, liver and trunk blood were collected. Plasma was separated from whole blood and stored at −20° C., and liver tissues were stored at −80° C. At each time point, adrenals, kidneys, uteri, ovaries, liver, and spleen were removed, grossly examined for lesions and wet tissue weights were recorded. Additional blood samples were collected by retro-orbital puncture and plasma was collected and stored on d58, d79, d91, and d100.
Histology and oocyte counting: Ovaries were trimmed of fat and placed in Bouin's fixative (2 hours), transferred to 70% ethanol, paraffin-embedded and serially sectioned (4-5 μm), mounted and stained with hematoxylin and eosin. In every 20th section (10-13 sections per ovary), pre-antral follicles were classified as primordial (oocyte surrounded by a single layer of flattened granulosa cells), primary (oocyte surrounded by a single layer of cuboidal cells), secondary (oocyte surrounded by multiple layers of granulosa cells) or antral follicles (follicles containing a fluid-filled antrum). Femora were collected on d58 from both control and VCD-treated animals, fixed in 4% paraformaldehyde, transferred to formaldehyde/formic acid (Cal-Rite, Richard Allan Scientific, Kalamazoo, […]., decalcified 24 hours, vacuum embedded in paraffin and 4.5 μm sections of distal metaphysis were prepared and stained with hematoxylin and eosin.
Data Analysis: Oocyte numbers were determined in ovaries from individual animals, averaged, and the means (±SEM) in control versus treated animals were analyzed for significant differences by one-way analysis of variance (ANOVA) with significance set at p<0.05. Post-hoc tests (Tukey-Kramer) were used where appropriate. The differences in plasma hormone concentrations among treatments were analyzed using a one-way ANOVA. The correlation coefficient was determined by regression analysis.

FSH = experiment: Plasma FSH radioimmunoassay; type: in vivo, B6C3F1 mice; conditions: 160 mg/kg 15 d
Method: as §1
Hormone Assays: Plasma FSH was measured by radioimmunoassay (RIA). Rat FSH hormone antigen, rat FSH antiserum and mouse FSH reference preparation were purchased from the National Institute of Diabetes and Digestive and Kidney diseases. Iodination reagents (Iodo-Beads™28665, 28666) were purchased from Pierce (Rockford Ill.). Briefly, a standard curve was prepared and cold standards and samples (100 μl) were added to labeled tubes along with primary antibody (1:1400 dilution) and iodinated FSH. Samples were shaken and stored at 4 C overnight. On day 2, 100 μl secondary antibody (Sigma Chemical, cat. # R9133) was added (1:10) dilution along with 200 μl of 2% normal rabbit serum and incubated at room temperature for 5 minutes. Tubes were centrifuged for 15 minutes at 3000 rpm, supernatant was decanted and pellets were counted in a gamma counter for 1 minute each. All samples were run in duplicate. The mean sensitivity of the assay was 200 pg/ml and inter- and intra-assay coefficients of variation were 2.7% and 6.7% respectively. Plasma 17β-estradiol was measured in unextracted plasma by radioimmunoassay (Diagnostic Products Inc., CA). The mean sensitivity of the assay was 5.1 pg/ml. The intra-assay coefficient of variation was 5.3%. Circulating androstenedione was measured by specific RIA. Androstenedione standards and antibody were provided by Dr. Cheryl Dyer (Northern Arizona University). The mean sensitivity of the assay was 70 pg/ml with an inter-assay coefficient of variation of 5.3%. The results of all RIAs were calculated by four-parameter logistic analysis using the software AssayZap (BioSoft, Ferguson, Mo.). Results are the mean±SEM.

17β-estradiol = experiment: Plasma 17β-estradiol radioimmunoassay; type: in vivo, B6C3F1 mice; conditions: 160 mg/kg 15 d, d37 through d91
Method: as §1, with “Plasma was separated from whole blood and stored at −20° C., and liver tissues were stored at −80° C.” left out, “Additional blood samples were collected by retro-orbital puncture and plasma was collected and stored on d58, d79, d91, and d100.” left out
(§2) Hormone Assays: Plasma FSH was measured by radioimmunoassay (RIA). […] Tubes were centrifuged for 15 minutes at 3000 rpm, supernatant was decanted and pellets were counted in a gamma counter for 1 minute each. […] Plasma 17β-estradiol was measured in unextracted plasma by radioimmunoassay (Diagnostic Products Inc., CA). […] Circulating androstenedione was measured by specific RIA. […] The results of all RIAs were calculated by four-parameter logistic analysis using the software AssayZap (BioSoft, Ferguson, Mo.). […]

androstenedione = experiment: Circulating androstenedione RIA; type: in vivo, B6C3F1 mice; conditions: 160 mg/kg 15 d
Method: as §1, with “Plasma was separated from whole blood and stored at −20° C., and liver tissues were stored at −80° C.” left out, “Additional blood samples were collected by retro-orbital puncture and plasma was collected and stored on d58, d79, d91, and d100.” left out
as §2

osteocalcin = experiment: Osteocalcin immunoradiometric assay; type: in vivo, B6C3F1 mice; conditions: 160 mg/kg i.p. 15 d
Method: Osteocalcin measurement: Intact serum Osteocalcin was measured using an immunoradiometric assay (IRMA, Immutopics, San Clemente, Calif.). Assay sensitivity was 0.4 ng/ml and the intra-assay coefficient of variation was 6.7%.

[2] = Tolerability of VCD dosing regimens; type: in vivo, mice
ovarian follicles [3] = experiment: Follicle depletion by other routes and vehicles; type: in vivo; conditions: i.p. injection in DMSO vehicle
[4] = cited from earlier work
ovarian follicles [5] = conditions: cited from earlier work
ovarian follicles [6] = conditions: cited from earlier work; remark: listed apart in the source
[7] = 240 mg/kg (80 mg/kg 3× daily), 15 d, d15
[8] = 240 mg/kg (240 mg/kg 1× daily), 15 d, d15
[9] = 320 mg/kg (160 mg/kg 2× daily), 15 d, d15

## C1CC2OC2CC1C1CO1 (stereo not shown) [VCD, 4-vinylcyclohexene diepoxide]
[1]; 80 mg/kg i.p. daily, 15 d, d15
  Primary follicles: 38.6 % of control
[1]; 80 mg/kg i.p. daily, 15 d, ovaries d15
  Primordial follicles: 12.1 % of control
[1]; 160 mg/kg (80 mg/kg 2× daily), 15 d, d15
  Primary follicles: 11.3 % of control
[1]; 160 mg/kg (80 mg/kg 2× daily, and 160 mg/kg 1× daily), 15 d, d15
  Primordial follicles: 0 % of control
[1]; 160 mg/kg (160 1× daily), 15 d, d15
  Primary follicles: 2.8 % of control
[1]; 160 mg/kg i.p. 15 d, d46
  Antral follicles on d46: 2.6 % of control
  Primary follicles on d46: 0.5 % of control
  Primordial follicles on d46: no primordial follicles
  Secondary follicles on d46: 0.7 % of control
[1]; 160 mg/kg i.p., d8-d30
  Primary and primordial follicle numbers over time: reduced (p<0.05) primary and primordial follicle numbers progressively over time
[1]; 160 mg/kg, 15 d, d15-d46
  Antral follicle numbers: progressively reduced
[1]; 160 mg/kg, injected 1× daily
  Primordial follicle loss at the optimal concentration: complete loss of primordial follicles
[1]; [7]
  Primary follicles: 5.1 % of control
  Primordial follicles: 2.1 % of control
[1]; [8]
  Primary follicles: 0 % of control
  Primordial follicles: 0 % of control
[1]; [9]
  Primary follicles: 0.6 % of control
  Primordial follicles: 0 % of control
FSH; d37
  Plasma FSH: 11.5 ± 5.7 ng/mL
FSH; d46
  Plasma FSH: 14.3 ± 1.3 ng/mL
FSH; d58
  Plasma FSH: 20.2 ± 1.2 ng/mL
FSH; d100
  Plasma FSH: 25.8 ± 0.23 ng/mL
FSH; d120
  Plasma FSH: 25.9 ± 1.1 ng/mL
FSH; d127 (data not shown)
  Plasma FSH: increased (p<0.05) relative to controls
17β-estradiol
  Plasma levels of 17β-estradiol: below the limit of detection
androstenedione; d46
  Relative abundance of androgen versus estrogen: 97 % of androgen plus estrogen
androstenedione; d46, plasma pools
  Circulating androstenedione: 0.73 ± 0.05 ng/mL
osteocalcin; d46
  Plasma osteocalcin: 131.3 ± 5.4 ng/mL
osteocalcin; d58
  Plasma osteocalcin: 156.3 ± 6.1 ng/mL
osteocalcin; d120 (not different from control)
  Plasma osteocalcin: 143.4 ± 7.1 ng/mL
[2]; 160 mg/kg/d i.p. for 15 d
  Adverse effects of the single daily injection regimen: without adverse effects
[2]; 2400 mg/kg single bolus
  Outcome of total dose injected in a single bolus: died and die within hours
[2]; 3 times a day @ 80 mg/kg (total 240 mg/kg/d)
  Tolerance of dosing 3 times a day: tolerated VCD as well as mice injected once a day with 160 mg/kg; also recorded: tolerate VCD well
Ovarian follicles [3]
  Follicular depletion with DMSO vehicle versus sesame oil: achieves the same follicular depletion
[4]
  Water solubility: water soluble
Ovarian follicles [5]; dermal application in acetone
  Activity on dermal application: active
Ovarian follicles [5]; oral, dermal, or inhalation exposure
  Follicle loss after other routes of exposure: follicle loss also occurs
Ovarian follicles [6]; F344 rats dosed with VCD
  Premature ovarian failure in long term studies: premature ovarian failure occurred within a year
Ovarian follicles [6]; rats, 12 days of dosing
  Number of primordial and primary follicles compared to vehicle controls: significant reduction
Ovarian follicles [6]; rats, 30 days of dosing
  Numbers of secondary follicles: significant reduction
